This assay has as its system KMO. The assay can be described thus: KMO activity assay: L-Kynurenine hydroxylation to 3-Hydroxy-Kynurenine, quantified by LC/MS. The class given is biochemical. The conditions noted are these: compound at 10 uM; footnote: some portion of activity of amides may be due to contribution of acid precursor. In short, it runs like this:
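Enzyme: KMO from mitochondria isolated from CHO cells expressing GST-His-KMO, with L-kynurenine as substrate (stock 10 mM in 100 mM potassium phosphate, pH 7.4). Conversion to 3-hydroxy-kynurenine quantified by LC/MS multiple reaction monitoring; compound stocks 10 mM in DMSO.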

Each structure is given as a SMILES string.

As to `C[C@H](NC(=O)c1cc(-c2ccc(Cl)cc2)ncn1)c1ccccc1` [6-(4-Chloro-phenyl)-pyrimidine-4-carboxylic acid ((S)-1-phenyl-ethyl)-amide], the “% Inhibition at 10 uM” value is given as 68.94%. Under `CCCCOC(=O)c1cc(-c2ccc(Cl)c(Cl)c2)ncn1` [butyl 6-(3,4-dichlorophenyl)pyrimidine-4-carboxylate] stands 100%; under `O=C1CC(NC(=O)c2cc(-c3ccc(Cl)c(Cl)c3)ncn2)CN1` (centres unmarked) [6-(3,4-Dichloro-phenyl)-pyrimidine-4-carboxylic acid (5-oxo-pyrrolidin-3-yl)-amide], 83.73%; under `CN(C)CCC(=O)N[C@H]1CCN(C(=O)c2cc(-c3ccc(Cl)c(Cl)c3)ncn2)C1` [N-{(S)-1-[6-(3,4-Dichloro-phenyl)-pyrimidine-4-carbonyl]-pyrrolidin-3-yl}-3-dimethylamino-propionamide], 91.785%.

Take `O=C1CN(C(=O)CNC(=O)c2cc(-c3ccc(Cl)c(Cl)c3)ncn2)CCN1` [6-(3,4-Dichloro-phenyl)-pyrimidine-4-carboxylic acid [2-oxo-2-(3-oxo-piperazin-1-yl)-ethyl]-amide]: the “% Inhibition at 10 uM” value was found to be 62.23%. Under `O=S(=O)(Nc1cc(-c2ccc(Cl)c(Cl)c2)ccn1)c1ccccc1` [N-[4-(3,4-dichlorophenyl)pyridin-2-yl]benzenesulfonamide] stands 17%; under `NC(=O)[C@H]1CCCN1C(=O)c1cc(-c2ccc(Cl)c(Cl)c2)ncn1` [(R)-1-[6-(3,4-Dichloro-phenyl)-pyrimidine-4-carbonyl]-pyrrolidine-2-carboxylic acid amide], 101%. The value for `O=S(=O)(Nc1cc(-c2ccc(Cl)c(Cl)c2)ncn1)c1cccc(OC(F)(F)F)c1` [N-[6-(3,4-dichlorophenyl)pyrimidin-4-yl]-3-(trifluoromethoxy)benzene-1-sulfonamide] was 100%; that for `C[C@H](NC(=O)c1cc(-c2ccc(Cl)c(Cl)c2)ncn1)C(N)=O` [6-(3,4-Dichloro-phenyl)-pyrimidine-4-carboxylic acid ((S)-1-carbamoyl-ethyl)-amide] was 47.73%; that for `Cl.O=C(Nc1ccc(OCCN2CCOCC2)cc1)c1cc(-c2ccc(Cl)c(Cl)c2)ncn1` [6-(3,4-Dichloro-phenyl)-pyrimidine-4-carboxylic acid [4-(2-morpholin-4-yl-ethoxy)-phenyl]-amide hydrochloride salt] was 90.48%. On to `O=C(NS(=O)(=O)c1ccccc1)c1cc(-c2cccc(Cl)c2)ncn1` [N-[6-(3-Chloro-phenyl)-pyrimidine-4-carbonyl]-benzenesulfonamide], for which the “% Inhibition at 10 uM” value stood at 100.67%. Consider `C[C@H](NC(=O)c1cc(-c2ccc(Cl)c(Cl)c2)ncn1)C(=O)O` [(S)-2-{[6-(3,4-Dichloro-phenyl)-pyrimidine-4-carbonyl]-amino}-propionic acid], for which the “% Inhibition at 10 uM” value was determined as 100.865%.

As to `C[C@@H](NC(=O)c1cc(-c2ccc(Cl)c(Cl)c2)ncn1)c1ccccc1` [6-(3,4-Dichloro-phenyl)-pyrimidine-4-carboxylic acid ((R)-1-phenyl-ethyl)-amide], the “% Inhibition at 10 uM” value was found to be 101.25%.

For `O=S(=O)(Nc1cc(-c2ccc(F)c(Cl)c2)ncn1)c1ccccc1F` [N-[6-(3-chloro-4-fluorophenyl)pyrimidin-4-yl]-2-fluorobenzene-1-sulfonamide], the “% Inhibition at 10 uM” value is 100%. In the case of `Cl.O=C(N[C@H]1CCNC1)c1cc(-c2ccc(Cl)c(Cl)c2)ncn1` [6-(3,4-Dichloro-phenyl)-pyrimidine-4-carboxylic acid (S)-pyrrolidin-3-ylamide hydrochloride salt], the “% Inhibition at 10 uM” value stood at 89.355%. Take `O=C(N[C@H]1CCCc2ccccc21)c1cc(-c2ccc(Cl)c(Cl)c2)ncn1` [6-(3,4-Dichloro-phenyl)-pyrimidine-4-carboxylic acid (1,2,3,4-tetrahydro-naphthalen-1S-yl)-amide]: the “% Inhibition at 10 uM” value was determined as 95.92%.

Consider `CS(=O)(=O)NC(=O)c1cc(-c2cccc(Cl)c2)ncn1` [N-[6-(3-Chloro-phenyl)-pyrimidine-4-carbonyl]-methanesulfonamide], for which the “% Inhibition at 10 uM” value is 101.58%.

On to `Cc1ccnc(C)c1NC(=O)c1cc(-c2ccc(Cl)c(Cl)c2)ncn1` [6-(3,4-Dichloro-phenyl)-pyrimidine-4-carboxylic acid (2,4-dimethyl-pyridin-3-yl)-amide], for which the “% Inhibition at 10 uM” value amounted to 85.37%. Regarding `O=C(O)c1cc(-c2ccc3ccccc3c2)ncn1` [6-Naphthalen-2-yl-pyrimidine-4-carboxylic acid], the “% Inhibition at 10 uM” value stood at 96%. The value for `O=C(O)c1ncnc(-c2ccc(Cl)c(Cl)c2)c1CO` [6-(3,4-dichlorophenyl)-5-(hydroxymethyl)pyrimidine-4-carboxylate] was 95%.

Take `N[C@@H](CCCCNC(=O)c1cc(-c2ccc(Cl)c(Cl)c2)ncn1)C(=O)O` [(2S)-2-amino-6-{[6-(3,4-dichlorophenyl)pyrimidin-4-yl]formamido}hexanoic acid]: the “% Inhibition at 10 uM” value amounted to 85%. Consider `Cn1nc(NC(=O)c2cc(-c3ccc(Cl)c(Cl)c3)ncn2)c2ccccc21` [6-(3,4-Dichloro-phenyl)-pyrimidine-4-carboxylic acid (1-methyl-1H-indazol-3-yl)-amide], for which the “% Inhibition at 10 uM” value was determined as 93.95%. Under `O=C(NCC1(O)CCOCC1)c1cc(-c2ccc(Cl)c(Cl)c2)ncn1` [6-(3,4-Dichloro-phenyl)-pyrimidine-4-carboxylic acid (4-hydroxy-tetrahydro-pyran-4-ylmethyl)-amide] stands 74.49%; under `O=C(NC1CCOCC1)c1cc(-c2ccc(Cl)c(Cl)c2)ncn1` [6-(3,4-Dichloro-phenyl)-pyrimidine-4-carboxylic acid (tetrahydro-pyran-4-yl)-amide], 55.35%; under `O=C(NS(=O)(=O)c1cccc(Cl)c1)c1cc(-c2ccc(Cl)c(Cl)c2)ncn1` [3-Chloro-N-[6-(3,4-dichloro-phenyl)-pyrimidine-4-carbonyl]-benzenesulfonamide], 102.26%. The value for `C[C@@H](O)CNC(=O)c1cc(-c2ccc(Cl)c(Cl)c2)ncn1` [6-(3,4-Dichloro-phenyl)-pyrimidine-4-carboxylic acid ((R)-2-hydroxy-propyl)-amide] was 100.71%. As to `CC(C)COC(=O)c1cc(-c2ccc(Cl)c(Cl)c2)ncn1` [2-methylpropyl 6-(3,4-dichlorophenyl)pyrimidine-4-carboxylate], the “% Inhibition at 10 uM” value turned out to be 100%. The value for `NC(=O)[C@@H]1CCCN1C(=O)c1cc(-c2ccc(Cl)c(Cl)c2)ncn1` [(S)-1-[6-(3,4-Dichloro-phenyl)-pyrimidine-4-carbonyl]-pyrrolidine-2-carboxylic acid amide] was 99.05%; that for `O=C(N[C@H]1CCOC1)c1cc(-c2ccc(Cl)c(Cl)c2)ncn1` [6-(3,4-Dichloro-phenyl)-pyrimidine-4-carboxylic acid (tetrahydro-furan-3S-yl)-amide] was 53.41%. The value for `Cc1nnc(CNC(=O)c2cc(-c3ccc(Cl)c(Cl)c3)ncn2)o1` [6-(3,4-Dichloro-phenyl)-pyrimidine-4-carboxylic acid (5-methyl-[1,3,4]oxadiazol-2-ylmethyl)-amide] was 100.815%; that for `CC(NC(=O)c1cc(-c2ccc(Cl)c(Cl)c2)ncn1)[C@@H](C)O` (stereo partly drawn) [6-(3,4-Dichloro-phenyl)-pyrimidine-4-carboxylic acid ((R)-2-hydroxy-1-methyl-propyl)-amide] was 66.43%; that for `C[C@H](NC(=O)c1cc(-c2ccc(Cl)c(Cl)c2)ncn1)c1cccnc1` [6-(3,4-Dichloro-phenyl)-pyrimidine-4-carboxylic acid ((S)-1-pyridin-3-yl-ethyl)-amide] was 85.1%.

`O=C(NC1CN2CCC1CC2)c1cc(-c2ccc(Cl)c(Cl)c2)ncn1` (centres unmarked) [6-(3,4-Dichloro-phenyl)-pyrimidine-4-carboxylic acid (1-aza-bicyclo[2.2.2]oct-3-yl)-amide]: the “% Inhibition at 10 uM” value is 100.905%.

Consider `CNC(=O)C1CCN(C(=O)c2cc(-c3ccc(Cl)c(Cl)c3)ncn2)C1` (centres unmarked) [1-[6-(3,4-Dichloro-phenyl)-pyrimidine-4-carbonyl]-pyrrolidine-3-carboxylic acid methylamide], for which the “% Inhibition at 10 uM” value is on record as 83.065%.

Turning to `Cn1ccc(NC(=O)c2cc(-c3ccc(Cl)c(Cl)c3)ncn2)n1` [6-(3,4-Dichloro-phenyl)-pyrimidine-4-carboxylic acid (1-methyl-1H-pyrazol-3-yl)-amide], the “% Inhibition at 10 uM” value worked out at 100.05%.

The values above are taken from patent US9428464B2, “Kynurenine-3-monooxygenase inhibitors, pharmaceutical compositions, and methods of use thereof” (CHDI Foundation, Inc., priority 2011, dated 2016).
